Measurements: ChEMBL document CHEMBL5120927, “LEGO-Lipophosphonoxins: A Novel Approach in Designing Membrane Targeting Antimicrobials” (J Med Chem, 2022)

Tests used:
[1] = tested on: Staphylococcus aureus; experiment: Antibacterial activity against wild type Staphylococcus aureus 4502/A assessed as reduction in microbial growth incubated for 24 hrs by microdilution assay; assay type: functional
[2] = tested on: Staphylococcus aureus; experiment: Antibacterial activity against wild type Staphylococcus aureus 4482/A assessed as reduction in microbial growth incubated for 24 hrs by microdilution assay; assay type: functional
[3] = tested on: Staphylococcus aureus; experiment: Antibacterial activity against wild type Staphylococcus aureus 4557/A assessed as reduction in microbial growth incubated for 24 hrs by microdilution assay; assay type: functional
[4] = tested on: Staphylococcus aureus; experiment: Antibacterial activity against […] Staphylococcus aureus 4463/A assessed as reduction in microbial growth incubated for 24 hrs by microdilution assay; assay type: functional
[5] = tested on: Staphylococcus aureus; experiment: Antibacterial activity against Staphylococcus aureus ATCC 29213 = CCM 4223 assessed as inhibition of bacterial growth incubated for 24 hrs by microdilution assay; assay type: functional
[6] = tested on: Pseudomonas aeruginosa; experiment: Antibacterial activity against Pseudomonas aeruginosa ATCC 27853 = CCM 3955 assessed as inhibition of bacterial growth incubated for 24 hrs by microdilution assay; assay type: functional
[7] = tested on: Staphylococcus epidermidis; experiment: Antibacterial activity against Staphylococcus epidermidis CCM 7221 assessed as inhibition of bacterial growth incubated for 24 hrs by microdilution assay; assay type: functional
[8] = Toxicity in rabbit assessed as clinical sign at 10 to 200 mg/kg, po; assay type: organism-based, Oryctolagus cuniculus; conditions: in vivo, dose 10-200 mg/kg
[9] = tested on: Staphylococcus aureus; experiment: Antibacterial activity against wild type Staphylococcus aureus 4738/B assessed as reduction in microbial growth incubated for 24 hrs by microdilution assay; assay type: functional
[10] = tested on: Staphylococcus aureus; experiment: Antibacterial activity against wild type Staphylococcus aureus 4740/B assessed as reduction in microbial growth incubated for 24 hrs by microdilution assay; assay type: functional
[11] = tested on: Staphylococcus aureus; experiment: Antibacterial activity against wild type Staphylococcus aureus 4883/C assessed as reduction in microbial growth incubated for 24 hrs by microdilution assay; assay type: functional
[12] = tested on: Staphylococcus aureus; experiment: microbe, parasite or virus in culture; conditions: 4862/C, 24 h
Description: Antibacterial activity against wild type Staphylococcus aureus 4862/C assessed as reduction in microbial growth incubated for 24 hrs by microdilution assay

[13] = Toxicity in rabbit assessed as clinical sign at 0.5 to 15 mg/kg, sc; assay type: organism-based, Oryctolagus cuniculus; conditions: in vivo, dose 0.5-15 mg/kg
[14] = tested on: Staphylococcus aureus; experiment: Antibacterial activity against wild type Staphylococcus aureus 77/CF assessed as reduction in microbial growth incubated for 24 hrs by microdilution assay; assay type: functional
[15] = tested on: Staphylococcus aureus; experiment: Antibacterial activity against wild type Staphylococcus aureus 4679/B assessed as reduction in microbial growth incubated for 24 hrs by microdilution assay; assay type: functional
[16] = tested on: Staphylococcus aureus; experiment: Antibacterial activity against […] Staphylococcus aureus 4461/A assessed as reduction in microbial growth incubated for 24 hrs by microdilution assay; assay type: functional
[17] = tested on: Escherichia coli; experiment: Antibacterial activity against multidrug-resistant Escherichia coli CE5556 expressing CTX-M-15 assessed as reduction in microbial growth incubated for 24 hrs by microdilution assay; assay type: functional
[18] = tested on: Staphylococcus aureus; experiment: Antibacterial activity against wild type Staphylococcus aureus 4504/A assessed as reduction in microbial growth incubated for 24 hrs by microdilution assay; assay type: functional
[19] = tested on: Escherichia coli; experiment: Antibacterial activity against Escherichia coli ATCC 25922 = CCM 3954 assessed as inhibition of bacterial growth incubated for 24 hrs by microdilution assay; assay type: functional
[20] = tested on: Staphylococcus aureus; experiment: Antibacterial activity against wild type Staphylococcus aureus 4566/A assessed as reduction in microbial growth incubated for 24 hrs by microdilution assay; assay type: functional
[21] = tested on: Staphylococcus aureus; experiment: Antibacterial activity against wild type Staphylococcus aureus 4561/A assessed as reduction in microbial growth incubated for 24 hrs by microdilution assay; assay type: functional
[22] = tested on: Staphylococcus aureus; experiment: microbe, parasite or virus in culture; conditions: 4880/C, 24 h
Description: Antibacterial activity against wild type Staphylococcus aureus 4880/C assessed as reduction in microbial growth incubated for 24 hrs by microdilution assay

[23] = Gradient chromatographic hydrophobicity index of the compound at pH 3.7 by HPLC analysis; assay type: ADME
[24] = Toxicity in rabbit assessed as pathological changes in necropsy at 0.5 to 15 mg/kg, sc; assay type: organism-based, Oryctolagus cuniculus; conditions: in vivo, dose 0.5-15 mg/kg
[25] = Hemolytic activity in human RBC assessed as haemoglobin release measured after 3 hr; assay type: toxicity, cell-based, Erythrocyte; conditions: red blood cells (erythrocytes)
[26] = tested on: Staphylococcus aureus; experiment: Antibacterial activity against wild type Staphylococcus aureus 4515/A assessed as reduction in microbial growth incubated for 24 hrs by microdilution assay; assay type: functional
[27] = tested on: Staphylococcus aureus; experiment: Antibacterial activity against wild type Staphylococcus aureus 4717/B assessed as reduction in microbial growth incubated for 24 hrs by microdilution assay; assay type: functional
[28] = tested on: Pseudomonas aeruginosa; experiment: Antibacterial activity against multidrug-resistant Pseudomonas aeruginosa assessed as reduction in microbial growth incubated for 24 hrs by microdilution assay; assay type: functional
[29] = tested on: Staphylococcus aureus; experiment: Antibacterial activity against wild type Staphylococcus aureus 78/CF assessed as reduction in microbial growth incubated for 24 hrs by microdilution assay; assay type: functional
[30] = tested on: Staphylococcus aureus; experiment: Antibacterial activity against wild type Staphylococcus aureus 4968/C assessed as reduction in microbial growth incubated for 24 hrs by microdilution assay; assay type: functional
[31] = Toxicity in rabbit assessed as pathological changes in necropsy at 10 to 200 mg/kg, po; assay type: organism-based, Oryctolagus cuniculus; conditions: in vivo, dose 10-200 mg/kg
[32] = tested on: Staphylococcus aureus; experiment: Antibacterial activity against wild type Staphylococcus aureus 4904/C assessed as reduction in microbial growth incubated for 24 hrs by microdilution assay; assay type: functional
[33] = tested on: Enterococcus faecalis; experiment: Antibacterial activity against Enterococcus faecalis ATCC 29212 = CCM 4224 assessed as inhibition of bacterial growth incubated for 24 hrs by microdilution assay; assay type: functional
[34] = tested on: Staphylococcus aureus; experiment: Antibacterial activity against […] Staphylococcus aureus 4460/A assessed as reduction in microbial growth incubated for 24 hrs by microdilution assay; assay type: functional
[35] = tested on: Staphylococcus aureus; experiment: Antibacterial activity against methicillin resistant Staphylococcus aureus 4591/A assessed as reduction in microbial growth incubated for 24 hrs by microdilution assay; assay type: functional
[36] = tested on: Staphylococcus aureus; experiment: microbe, parasite or virus in culture; conditions: 5017/C, 24 h
Description: Antibacterial activity against wild type Staphylococcus aureus 5017/C assessed as reduction in microbial growth incubated for 24 hrs by microdilution assay

[37] = tested on: Staphylococcus aureus; experiment: Antibacterial activity against Staphylococcus aureus ATCC 29213 = CCM 4223 assessed as inhibition of bacterial growth incubated for 24 hrs in presence of BSA by microdilution assay; assay type: functional
[38] = tested on: Staphylococcus aureus; experiment: Antibacterial activity against wild type Staphylococcus aureus 5079/C assessed as reduction in microbial growth incubated for 24 hrs by microdilution assay; assay type: functional
[39] = tested on: Enterococcus faecium; experiment: Antibacterial activity against vancomycin resistant Enterococcus faecium 419/ANA assessed as reduction in microbial growth incubated for 24 hrs by microdilution assay; assay type: functional
[40] = tested on: Escherichia coli; experiment: Antibacterial activity against Escherichia coli ATCC 25922 = CCM 3954 assessed as inhibition of bacterial growth incubated for 24 hrs in presence of BSA by microdilution assay; assay type: functional
[41] = tested on: Staphylococcus aureus; experiment: Antibacterial activity against wild type Staphylococcus aureus 4788/B assessed as reduction in microbial growth incubated for 24 hrs by microdilution assay; assay type: functional

CCCC/C=C\CCOP(=O)(CCN(CCCN)CCCN)OCCCCCOP(=O)(CCN(CCCN)CCCN)OCC/C=C\CCCC.Cl.Cl.Cl.Cl.Cl.Cl (stereo unspecified)
MIC [1]: 4 µg/mL | MIC [2]: 4 µg/mL | MIC [3]: 2 µg/mL | MIC [4]: 4 µg/mL | MIC [5]: 2 µg/mL | MIC [6]: 32 µg/mL | MIC [7]: 0.5 µg/mL | Activity [8]: Non-Toxic | MIC [9]: 4 µg/mL | MIC [10]: 4 µg/mL | MIC [11]: 2 µg/mL | MIC [12]: 4 µg/mL | Activity [13]: Non-Toxic | MIC [14]: 4 µg/mL | MIC [15]: 4 µg/mL | MIC [16]: 4 µg/mL | MIC [17]: 4 µg/mL | MIC [18]: 4 µg/mL | MIC [19]: 8 µg/mL | MIC [20]: 4 µg/mL | MIC [21]: 4 µg/mL | MIC [22]: 4 µg/mL | CHI [23]: 33.3 | Activity [24]: Non-Toxic | HC50 at 3 h [25]: 70 µg/mL | MIC [26]: 4 µg/mL | MIC [27]: 2 µg/mL | MIC [28]: 32 µg/mL | MIC [29]: 8 µg/mL | MIC [30]: 4 µg/mL | Activity [31]: Non-Toxic | MIC [32]: 4 µg/mL | MIC [33]: 32 µg/mL | MIC [34]: 4 µg/mL | MIC [35]: 2 µg/mL | MIC [36]: 4 µg/mL | MIC [37]: 8 µg/mL | MIC [38]: 4 µg/mL | MIC [39]: 128 µg/mL | MIC [40]: 4 µg/mL | MIC [41]: 4 µg/mL
